In ChEMBL document CHEMBL1136554, “p38 Inhibitors: piperidine- and 4-aminopiperidine-substituted naphthyridinones, quinolinones, and dihydroquinazolinones” (Bioorg Med Chem Lett, 2003):

What was measured:
MAP kinase p38 [1] = biological target: T1, MAP kinase p38 (Homo sapiens, UniProt O15264+Q15759+Q16539+P53778); assay: Inhibition of p38 kinase related TNF-alpha release; assay type: functional
MAP kinase p38 [2] = biological target: T1, MAP kinase p38; assay: Inhibition of p38 MAP kinase; assay type: protein assay
[3] = Oral bioavailability in rat; assay type: ADME, organism-based; conditions: in vivo
[4] = Plasma clearance measured in rat; assay type: ADME, organism-based; conditions: read-out: Clp

| SMILES | IC50 (MAP kinase p38 [1]) [nM] | IC50 (MAP kinase p38 [2]) [nM] | bioavailability [3] [%] | clearance [4] [mL/min/kg] |
| --- | --- | --- | --- | --- |
| CN1C(C)(C)CC(Nc2cc3c(ccc(=O)n3-c3c(Cl)cccc3Cl)c(-c3ccccc3Cl)n2)CC1(C)C | 13 | 1.1 |  |  |
| CN1C2CCC1CC(Nc1cc3c(ccc(=O)n3-c3c(Cl)cccc3Cl)c(-c3ccccc3Cl)n1)C2 (configuration not stated) | 24 | 0.4 | 8.5 | 38 |
| CN1C2CCC1CC(Nc1cc(-c3ccccc3Cl)c3c(c1)N(c1c(Cl)cccc1Cl)C(=O)NC3)C2 (configuration not stated) | 20 | 0.4 |  |  |
| CC(C)N1CCC(c2cc3c(ccc(=O)n3-c3c(Cl)cccc3Cl)c(-c3ccccc3Cl)n2)CC1 | 4.9 | 1.3 | 32 | 51 |
| CC(C)N1CCC(Nc2cc(-c3ccccc3Cl)c3c(c2)N(c2c(Cl)cccc2Cl)C(=O)NC3)CC1 | 31 | 1.6 |  |  |
| CC1(C)CC(Nc2cc3c(ccc(=O)n3-c3c(Cl)cccc3Cl)c(-c3ccccc3Cl)n2)CC(C)(C)N1 | 10 | 0.8 | 5.9 | 9.4 |
| O=c1ccc2c(-c3ccccc3Cl)nc(NC3CCNCC3)cc2n1-c1c(Cl)cccc1Cl | 18 | 0.2 |  |  |
| CC(C)N1CCC(Nc2cc3c(ccc(=O)n3-c3c(Cl)cccc3Cl)c(-c3ccccc3Cl)n2)CC1 | 51 | 1.1 |  |  |
| CC(C)N1CCC(c2cc(-c3ccc(F)cc3Cl)c3c(c2)N(c2c(Cl)cccc2Cl)C(=O)CC3)CC1 | 24 | 0.8 | 10 | 70 |
| CC(C)N1CCC(c2cc(-c3ccccc3Cl)c3ccc(=O)n(-c4c(Cl)cccc4Cl)c3c2)CC1 | 5.5 | 0.2 | 17 | 39 |
| CC1(C)CC(Nc2cc(-c3ccccc3Cl)c3c(c2)N(c2c(Cl)cccc2Cl)C(=O)NC3)CC(C)(C)N1 | 200 | 3.7 |  |  |
